Laboratory results taken from the supplement of paper PMC10307832.

Tests used:
Experiment in all cases: relative viability (nuclei count vs DMSO), 5 days (fraction); higher = more cells survive
[1] = compound: CC(=O)Nc1cccc(-n2c(=O)n(C3CC3)c(=O)c3c(Nc4ccc(I)cc4F)n(C)c(=O)c(C)c32)c1 [Trametinib] + Cc1nc(NC(=O)N2CCC[C@H]2C(N)=O)sc1-c1ccnc(C(C)(C)C(F)(F)F)c1 [Alpelisib] (partner 2 µM)
In short: (§1)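 Medians of duplicate plates are given as relative viability. That measure is the nuclei count in treated wells divided by the count in vehicle wells. Counts were taken on 4× images of lung cancer cell lines in 1536-well plates, 5 days after pin-tool dosing the day after seeding with one drug alone or a fixed anchor-drug dose plus five library-drug doses (not always all listed) in √10 steps.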

[2] = compound: CC(=O)Nc1cccc(-n2c(=O)n(C3CC3)c(=O)c3c(Nc4ccc(I)cc4F)n(C)c(=O)c(C)c32)c1 [Trametinib] + N=C(N)NC(=N)NCCc1ccccc1 [Phenformin] (partner 250 µM)
In short: as §1

[3] = compound: CN1C=C(C2=CC=CC=C21)/C=C\3/C4=C(C=CC=N4)NC3=O + COc1cc2c(Oc3ccc(NC(=O)C4(C(=O)Nc5ccc(F)cc5)CC4)cc3F)ccnc2cc1OCCCN1CCOCC1 [Foretinib] (partner 0.25 µM)
In short: as §1

[4] = compound: CN1C=C(C2=CC=CC=C21)/C=C\3/C4=C(C=CC=N4)NC3=O + O=C(CCCCCCC(=O)Nc1ccccc1)NO [Vorinostat] (partner 1 µM)
In short: as §1

**Q.** Which results are given for UMC-11?
**A.** relative viability ([1]; first compound 0.0025 µM): 0.904; relative viability ([1]; first compound 0.007906 µM): 0.981; relative viability ([1]; first compound 0.025 µM): 0.956; relative viability ([1]; first compound 0.07906 µM): 0.876; relative viability ([1]; first compound 0.25 µM): 0.945; relative viability ([2]; first compound 0.0025 µM): 0.366; relative viability ([2]; first compound 0.007906 µM): 0.328; relative viability ([2]; first compound 0.025 µM): 0.28; relative viability ([2]; first compound 0.07906 µM): 0.309; relative viability ([2]; first compound 0.25 µM): 0.291; relative viability ([3]; first compound 0.02 µM): 0.835; relative viability ([3]; first compound 0.06325 µM): 0.979; relative viability ([3]; first compound 0.2 µM): 1.06; relative viability ([3]; first compound 0.6325 µM): 1.14; relative viability ([3]; first compound 2 µM): 1.29; relative viability ([4]; first compound 0.02 µM): 0.323; relative viability ([4]; first compound 0.06325 µM): 0.301; relative viability ([4]; first compound 0.2 µM): 0.322; relative viability ([4]; first compound 0.6325 µM): 0.391; relative viability ([4]; first compound 2 µM): 0.36
